These results are taken from paper PMC7883726 (Acta Pharmaceutica Sinica. B, 2021).

The experiment deals with SARS-CoV-2 RdRp (Severe acute respiratory syndrome coronavirus 2, UniProt P0DTD1). Put plainly: biochemical. The class given is binding. The conditions noted are these: for koff: read-out: kdis.
Where [1] appears, read: KD, BLI, 1:1 binding model, compounds 3.125–100 μmol/L.
[2] abbreviates: BLI, 1:1 binding model, compounds 3.125–100 μmol/L.

What is called kon is a measure of how fast the partners come together. Low readings indicate slower complex formation, high ones faster complex formation. One may read the Kd as the concentration at which binding is half-saturated. High values mean weaker binding, low ones tighter binding.

Where two headings read alike, the source gives them in different places.

`C[C@@H]1O[C@@H](O[C@@H]2[C@@H](O)[C@H](OCCc3ccc(O)c(O)c3)O[C@H](CO)[C@H]2OC(=O)/C=C/c2ccc(O)c(O)c2)[C@H](O)[C@H](O)[C@H]1O` [RAI-S-11, Verbascoside]: the kon worked out at 108 M⁻¹ s⁻¹ and the koff was 9.05e-05 s⁻¹. Also, the Kd under setting [1] is 0.84 ± 0.85 µM.
Consider `COc1cc(C(=O)NS(=O)(=O)c2ccccc2C)ccc1Cc1cn(C)c2ccc(NC(=O)OC3CCCC3)cc12` [RAI-S-19, Zafirlukast], for which the kon is 8.43 M⁻¹ s⁻¹ and the koff was 4.99 s⁻¹. Also, under setting [1], the Kd is above 1000 µM.
In the case of `O=C(Nc1nc(-c2ccc(O)c(O)c2)c(-c2ccccc2)s1)c1ccc(O)c(O)c1` [RAI-S-34, COH29], the equilibrium dissociation constant (Kd) is above 1000 µM, the kdis turned out to be 0.189 s⁻¹ and the kon amounted to 8.10 M⁻¹ s⁻¹.
In the case of `CC1(C)CC[C@]2(C(=O)O)CC[C@]3(C)C(=CC[C@@H]4[C@@]5(C)CCC(=O)C(C)(C)[C@@H]5CC[C@]43C)[C@@H]2C1` [RAI-S-35, Oleanonic Acid], the kon came to 98.4 M⁻¹ s⁻¹ and the koff stood at 0.0168 s⁻¹. Besides, the Kd under setting [1] was determined as 171 ± 35.9 µM.
For the compound `C[C@@H]1O[C@@H](OC[C@H]2O[C@@H](OCCc3ccc(O)c(O)c3)[C@H](O)[C@@H](O)[C@@H]2OC(=O)/C=C/c2ccc(O)c(O)c2)[C@H](O)[C@H](O)[C@H]1O` [RAI-S-36, Forsythoside A], the Kd is, setting by setting: under setting [2], below 50 µM; (BLI, 1:1 binding model, compounds 3.125–100 μmol/L, listed as 36) 1.16 ± 0.44 µM. For the setting “BLI, association rate constant”, the kon was 137 M⁻¹ s⁻¹. Under “BLI, dissociation rate constant”, the kdis was determined as 0.000159 s⁻¹.
As to `O=C(O[C@@H]1O[C@@H]2COC(=O)c3cc(O)c(O)c(O)c3-c3c(cc(O)c(O)c3O)C(=O)O[C@H]([C@H]1O)[C@@H]2O)c1cc(O)c(O)c(O)c1` [RAI-S-37, Corilagin], the kon is 496 M⁻¹ s⁻¹ and the koff stood at 0.000268 s⁻¹. Under setting [1], this compound had a Kd of 0.54 ± 0.01 µM.
As to `C[C@@H]1O[C@@H](OC[C@H]2O[C@@H](Oc3cc(O)c4c(=O)cc(-c5ccc(O)cc5)oc4c3)[C@H](O[C@@H]3O[C@@H](C)[C@H](O)[C@@H](O)[C@H]3O)[C@@H](O)[C@@H]2O)[C@H](O)[C@H](O)[C@H]1O` [RAI-S-38, Ligustroflavone], the KD result under setting [2] is given as “did not detect the binding”.
For the compound `Cc1ccc(Oc2nc3cc(-c4ccc(-c5ccccc5)cc4)c(Cl)cc3[nH]2)cc1C(=O)O` [RAI-S-45, MK-3903], the Kd amounted to 220 ± 19.4 µM, the kdis turned out to be 0.0665 s⁻¹ and the kon was determined as 302 M⁻¹ s⁻¹.
Turning to `O=C(O)CCc1cc(C(=O)c2ccc(OC3CCCC3)cc2O)ccc1OCc1ccc2c(=O)[nH]oc2c1` [RAI-S-47, T-5224], binding was put at a Kd of 38.7 ± 1.63 µM, the kdis was found to be 0.00774 s⁻¹ and the kon was found to be 200 M⁻¹ s⁻¹.
